biological target: Human cGAS amino acids 155-522 (Homo sapiens (Human), UniProt Q8N884); experiment: cGAS biochemical activity assay (ATP remaining, Kinase-Glo Max luminescence); settings: human cGAS 155-522, ATP remaining (Kinase-Glo Max); read-out: cGAS IC50
Sequence (Q8N884 157-522): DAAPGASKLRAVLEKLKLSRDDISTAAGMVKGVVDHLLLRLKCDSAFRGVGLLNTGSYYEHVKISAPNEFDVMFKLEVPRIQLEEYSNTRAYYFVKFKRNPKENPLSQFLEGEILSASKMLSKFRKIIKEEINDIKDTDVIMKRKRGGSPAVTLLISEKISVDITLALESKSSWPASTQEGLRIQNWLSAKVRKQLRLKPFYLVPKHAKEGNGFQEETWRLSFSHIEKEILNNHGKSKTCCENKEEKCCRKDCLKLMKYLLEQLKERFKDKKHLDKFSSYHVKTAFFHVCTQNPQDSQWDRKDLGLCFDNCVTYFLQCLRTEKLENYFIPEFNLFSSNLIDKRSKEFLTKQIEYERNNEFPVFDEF

Row | Structure (SMILES) | IC50 [µM]
1 | Cc1[nH]c2c(-c3ccccc3)c(C(F)(F)F)nn2c(=O)c1-c1nnc(C(N)=O)o1 [Compound D1066, 5-(5-methyl-7-oxo-3-phenyl-2-(trifluoromethyl)-4,7-dihydropyrazolo[1,5-a]pyrimidin-6-yl)-1,3,4-oxadiazole-2-carboxamide] | < 20
2 | Cc1[nH]c2c(-c3ccccc3)c(C(F)(F)F)nn2c(=O)c1C(=O)Nc1ccccc1NS(C)(=O)=O [Compound A1022, 5-methyl-N-(2-(methylsulfonamido)phenyl)-7-oxo-3-phenyl-2-(trifluoromethyl)-4,7-dihydropyrazolo[1,5-a]pyrimidine-6-carboxamide] | < 20
3 | Cc1[nH]c2c(-c3ccccc3)c(C(F)(F)F)nn2c(=O)c1C(=O)Nc1ccccc1OC1CCCC1 [Compound A1044, N-(2-(cyclopentyloxy)phenyl)-5-methyl-7-oxo-3-phenyl-2-(trifluoromethyl)-4,7-dihydropyrazolo[1,5-a]pyrimidine-6-carboxamide] | 20 to 250
4 | Cc1[nH]c2c(-c3ccccc3)c(C(F)(F)F)nn2c(=O)c1-c1nnc(N2CCCCC2CCN)o1 (stereo not shown) [Compound D1069, 6-(5-(2-(2-aminoethyl)piperidin-1-yl)-1,3,4-oxadiazol-2-yl)-5-methyl-3-phenyl-2-(trifluoromethyl)pyrazolo[1,5-a]pyrimidin-7(4H)-one] | 20 to 250
5 | COc1cccc2oc(-c3c(C(=O)N4CCCCC4)[nH]c4c(-c5ccccc5)c(C(F)(F)F)nn4c3=O)nc12 [Compound C1186, 6-(4-methoxybenzo[d]oxazol-2-yl)-3-phenyl-5-(piperidine-1-carbonyl)-2-(trifluoromethyl)pyrazolo[1,5-a]pyrimidin-7(4H)-one] | 20 to 250
6 | Cc1ccc(CN2CCN(C(=O)Cc3c(C)[nH]c4c(-c5ccccc5)c(C(F)(F)F)nn4c3=O)CC2)cc1 [Compound B1009, 5-methyl-6-(2-(4-(4-methylbenzyl)piperazin-1-yl)-2-oxoethyl)-3-phenyl-2-(trifluoromethyl)pyrazolo[1,5-a]pyrimidin-7(4H)-one] | > 250
7 | Cc1[nH]c2c(-c3ccccc3)c(C(F)(F)F)nn2c(=O)c1C(=O)Nc1cccnc1 [Compound A1005, 5-methyl-7-oxo-3-phenyl-N-(pyridin-3-yl)-2-(trifluoromethyl)-4,7-dihydropyrazolo[1,5-a]pyrimidine-6-carboxamide] | 20 to 250
8 | Cc1[nH]c2c(-c3ccccc3)c(C(F)(F)F)nn2c(=O)c1C(=O)Nc1ccccc1C#N [Compound A1036, N-(2-cyanophenyl)-5-methyl-7-oxo-3-phenyl-2-(trifluoromethyl)-4,7-dihydropyrazolo[1,5-a]pyrimidine-6-carboxamide] | 20 to 250
9 | Cc1[nH]c2c(-c3ccccc3)c(C(F)(F)F)nn2c(=O)c1C(=O)Nc1[nH]nc(C(F)(F)F)c1C1CCCC1 [Compound A1061, N-(4-cyclopentyl-3-(trifluoromethyl)-1H-pyrazol-5-yl)-5-methyl-7-oxo-3-phenyl-2-(trifluoromethyl)-4,7-dihydropyrazolo[1,5-a]pyrimidine-6-carboxamide] | 20 to 250
10 | COc1cccc2oc(-c3c(C(=O)N4CCC[C@@H]4CO)[nH]c4c(-c5ccccc5)c(C(F)(F)F)nn4c3=O)nc12 [Compound C1207, (R)-5-(2-(hydroxymethyl)pyrrolidine-1-carbonyl)-6-(4-methoxybenzo[d]oxazol-2-yl)-3-phenyl-2-(trifluoromethyl)pyrazolo[1,5-a]pyrimidin-7(4H)-one] | 20 to 250
11 | Cc1[nH]c2c(-c3ccccc3)c(C(F)(F)F)nn2c(=O)c1-c1nnc(N(C)C2CCCCC2)o1 [Compound D1043, 6-(5-(cyclohexyl(methyl)amino)-1,3,4-oxadiazol-2-yl)-5-methyl-3-phenyl-2-(trifluoromethyl)pyrazolo[1,5-a]pyrimidin-7(4H)-one] | > 250
12 | COc1cccc2c1CN(c1c(C)[nH]c3c(-c4ccccc4)c(C(F)(F)F)nn3c1=O)C2=O [Compound C1220, 6-(4-methoxy-1-oxoisoindolin-2-yl)-5-methyl-3-phenyl-2-(trifluoromethyl)pyrazolo[1,5-a]pyrimidin-7(4H)-one] | 20 to 250
13 | COCc1[nH]c2c(-c3ccccc3)c(C(=O)O)nn2c(=O)c1-c1nc2c(OC)cccc2o1 [Compound C1090, 6-(4-methoxybenzo[d]oxazol-2-yl)-5-(methoxymethyl)-7-oxo-3-phenyl-4,7-dihydropyrazolo[1,5-a]pyrimidine-2-carboxylic acid] | 20 to 250
14 | Cc1[nH]c2c(-c3ccccc3)c(C(F)(F)F)nn2c(=O)c1-c1nnc(N2CCS(=O)(=O)CC2)o1 [Compound D1068, 6-(5-(1,1-dioxidothiomorpholino)-1,3,4-oxadiazol-2-yl)-5-methyl-3-phenyl-2-(trifluoromethyl)pyrazolo[1,5-a]pyrimidin-7(4H)-one] | 20 to 250
15 | Cc1[nH]c2c(-c3ccccc3)c(C(F)(F)F)nn2c(=O)c1CC(=O)Nc1ccccc1 [Compound B1005] | 20 to 250
16 | Cc1[nH]c2c(-c3ccccc3)c(C(F)(F)F)nn2c(=O)c1C(=O)NC1CCOCC1 [Compound A1025, 5-methyl-7-oxo-3-phenyl-N-(tetrahydro-2H-pyran-4-yl)-2-(trifluoromethyl)-4,7-dihydropyrazolo[1,5-a]pyrimidine-6-carboxamide] | 20 to 250
17 | COc1cccc(NC(=O)c2c(C)[nH]c3c(-c4ccccc4)c(C4CC4)nn3c2=O)c1 [Compound A1123, 2-cyclopropyl-N-(3-methoxyphenyl)-5-methyl-7-oxo-3-phenyl-4,7-dihydropyrazolo[1,5-a]pyrimidine-6-carboxamide] | > 250
18 | Cc1[nH]c2c(-c3ccccc3)c(C(F)(F)F)nn2c(=O)c1C(=O)Nc1ccccc1OC(F)(F)F [Compound A1049, 5-methyl-7-oxo-3-phenyl-N-(2-(trifluoromethoxy)phenyl)-2-(trifluoromethyl)-4,7-dihydropyrazolo[1,5-a]pyrimidine-6-carboxamide] | 20 to 250
19 | Cc1[nH]c2c(-c3ccccc3)c(C(F)(F)F)nn2c(=O)c1C(=O)N[C@H]1CCCC[C@H]1O [Compound A1092, N-((1S,2R)-2-hydroxycyclohexyl)-5-methyl-7-oxo-3-phenyl-2-(trifluoromethyl)-4,7-dihydropyrazolo[1,5-a]pyrimidine-6-carboxamide] | 20 to 250
20 | Cc1[nH]c2c(-c3ccccc3)c(C(F)(F)F)nn2c(=O)c1C(=O)N[C@H]1CCNC1 [Compound A1035, (S)-5-methyl-7-oxo-3-phenyl-N-(pyrrolidin-3-yl)-2-(trifluoromethyl)-4,7-dihydropyrazolo[1,5-a]pyrimidine-6-carboxamide] | > 250
21 | Cc1[nH]c2c(-c3ccccc3)c(C(F)(F)F)nn2c(=O)c1C(=O)Nc1cnccc1S(C)(=O)=O [Compound A1109, 5-methyl-N-(4-(methylsulfonyl)pyridin-3-yl)-7-oxo-3-phenyl-2-(trifluoromethyl)-4,7-dihydropyrazolo[1,5-a]pyrimidine-6-carboxamide] | 20 to 250
22 | COc1cccc(NC(=O)c2c(C)[nH]c3c(-c4ccccc4)c(C(F)(F)F)nn3c2=O)c1Br [Compound A1131, N-(2-bromo-3-methoxyphenyl)-5-methyl-7-oxo-3-phenyl-2-(trifluoromethyl)-4,7-dihydropyrazolo[1,5-a]pyrimidine-6-carboxamide] | 20 to 250

— patent US10738056B2 (Aduro BioTech, Inc., priority 2017, dated 2020)
